These results are taken from patent US20020042393A1, “Excipient” (priority 1998, published 2002).

Data set [1] in a line: Proportion of particles of 75 μm or more (Air Jet Sieve). The format is physicochemical. The settings on record: excipient powder. The protocol: Five grams of trehalose was weighed onto a screen having a screen opening of 75 μm, and sifted with Air Jet Sieve (Model 200LS, mfd. by ALPINE) for 5 minutes, and the weight percentage of the weight of particles remaining on the screen based on the total weight of particles was calculated as the proportion of particles of 75 μm or more.

The nature of data set [2]: Average particle size (sieving, 50% cumulative weight). The format is physicochemical. The settings on record: excipient powder. The protocol: Five grams of trehalose was sifted through screens having screen openings of 500 μm, 300 μm and 250 μm, respectively, and then sifted with Air Jet Sieve by using screens having screen openings of 150 μm, 75 μm, 45 μm, 38 μm and 32 μm, respectively. The oversize particle weight percentage [%] was calculated for each screen, and the average particle size is expressed as a particle size corresponding to a cumulative weight percentage of 50%.

A short description of data set [3]: Apparent specific volume. In kind it is physicochemical. The settings on record: excipient powder. The text has this:
The whole of 10 g of trehalose powder was gently poured into a 100-ml measuring cylinder without making an impact (in this case, a cylinder having an outside diameter smaller than the inside diameter of the measuring cylinder was placed in the measuring cylinder, and it was slowly lifted after pouring the trehalose), and the apparent specific volume was expressed as a value obtained by dividing the read volume by the weight of the trehalose.

A short description of data set [4]: Angle of repose (Sugiwara's instrument). The format is physicochemical. As to conditions: excipient powder. The text has this:
Measured by means of a Sugiwara's instrument for measuring angle of repose (Yakuzaigaku 27, p. 260, 1965).

A short description of data set [5]: Change in whiteness of excipient mixed with drug at 40° C. and 75% RH (reactivity). The format is physicochemical. The protocol: (§1) For powder of trehalose or a pharmaceutical composition containing trehalose, values of L, a and b were measured with a color analyzer (TC-1800MKII, mfd. by Tokyo Denshoku Co., Ltd.), and the whiteness of the trehalose or pharmaceutical composition was calculated by the following equation: […]
One gram of each of the trehaloses obtained in Example 1 and 1 g of isoniazid were mixed and then allowed to stand in an atmosphere of 40° C. and 75% RH, and the change in whiteness of the trehalose was observed. On the other hand, 1 g of each of the trehaloses obtained in Example 1 and 1 g of aminophyline were mixed and then allowed to stand in an atmosphere of 40° C. and 75% RH, and the change in whiteness of the trehalose was observed.
One gram of 100-mesh lactose (available from De Melkindustrie Veghel bv) or 1 g of Mannit S (available from Tohwa Kasei Co., Ltd.) and 1 g of aminophyline were mixed and then allowed to stand in an atmosphere of 40° C. and 75% RH, and the change in whiteness of the lactose or Mannit S was observed.
As a starting material. […]

A short description of data set [6]: Whiteness of powder (color analyzer). The format is physicochemical. The settings on record: excipient powder. The procedure:
as §1

The nature of data set [7]: Tablet hardness (Schleuniger hardness meter). In kind it is physicochemical. The settings on record: for Tablet hardness at a compression pressure of 1000 kg/cm^2: phenacetin granules.
A short description of data set [8]: Wet granulation of phenacetin mixture with HPC binder solution: granule size and yield.
A short description of data set [9]: Water content (Karl Fisher) of tablets before and after storage. In kind it is physicochemical. As to conditions: tablets compressed at 500 kg/cm^2; 0 day; listed as F. The procedure:
Determined as a value obtained by measuring about 0.1 g of trehalose and determining its water content by the Karl Fisher method.
One hundred grams of commercial “Trehaose” (available from Hayashibara Biochemical Laboratories, Inc.) was dissolved in water to a concentration of about 35 wt %, and the resulting solution was concentrated under reduced pressure with heating at 60° C. so as to have a concentration of about 75 wt %, and allowed to stand at room temperature to precipitate crystals, which were washed with 50 ml of water. Glucose was removed by carrying out the above purification procedure once or twice, to increase the trehalose purity. Trehalose A was obtained by carrying out the purification procedure twice to obtain crystals, drying the crystals, grinding the dried crystals with a bantam mill (number of revolutions 15,000 rpm, feed rate 5 kg/hr, and screen opening 2.0 mmφ), and then sifting the ground crystals through a […]. Trehalose B was obtained by carrying out the purification procedure once to obtain crystals, drying the crystals, grinding the dried crystals with a bantam mill (number of revolutions 10,000 rpm, feed rate 5 kg/hr, and screen opening 2.00 mmφ), and then sifting the ground crystals through a 350-μm screen. Trehalose C was obtained by carrying out the purification procedure once to obtain crystals, drying the crystals, grinding the dried crystals with a bantam mill (number of revolutions 8,000 rpm, feed rate 5 kg/hr, and screen opening 2.0 mmφ), and then sifting the ground crystals through a 350-μm screen. […] Each of trehaloses A to C was compressed into tablets at a compression pressure of 500 kg/cm^2, and the tablet hardness immediately after the compression and the tablet hardness after standing for 3 days in an atmosphere of 40° C. and 75% RH after the compression were compared.
“Trehaose” (available from Hayashibara Bioscience Laboratories Co., Ltd.) was purified once by the method described in Example 1 to obtain crystals, which were dried, ground with a bantam mill (number of revolutions 12,000 rpm, feed rate 5 kg/hr, and screen opening 2.0 mmφ) and then dried at 105° C. for 4 hours to obtain trehalose anhydrous crystals. These crystals were compressed into tablets at a compression pressure of 500 kg/cm^2, and the tablet hardnesses of the tablets were compared in the same manner as in Example 1.

[10] abbreviates: 1 g excipient + 1 g aminophyline, 0 day.
[11] abbreviates: 1 g excipient + 1 g aminophyline, 40° C. and 75% RH, 5 days.

For `OC[C@H]1O[C@@H](O[C@H]2[C@H](O)[C@@H](O)C(O)O[C@@H]2CO)[C@H](O)[C@@H](O)[C@H]1O` (some centres unmarked) [100-Mesh lactose, lactose, reference compound], the “Proportion of particles of 75 μm or more” value in data set [1] stood at 76%. The compound also showed an Average particle size in [2] of 104 μm. For the same compound, the Apparent specific volume in [3] is listed as 1.5 cm^3/g. In data set [4], this compound gave an Angle of repose of 43 °. For the same compound, the Whiteness was found to be 99% in [5] (setting [10]) and 30% in data set [5] (setting [11]).
Consider `OC[C@@H](O)[C@@H](O)[C@H](O)[C@H](O)CO` [Mannit S, reference compound], for which, in [1] (listed as Mannit 5), the “Proportion of particles of 75 μm or more” value is 68%. Moreover, the Average particle size in data set [2] (listed as Mannit 5) is on record as 102 μm. In [3] (listed as Mannit 5), the Apparent specific volume came out at 1.7 cm^3/g. Also, the Angle of repose in data set [4] (listed as Mannit 5) is recorded as 53 °. In addition, the Whiteness is reported as 100% in [5] (setting [10]); 93% in [5] (1 g excipient + 1 g aminophyline, 40° C. and 75% RH, 1 month); 98% in data set [5] (setting [11]).
As for `OC[C@H]1O[C@H](O[C@H]2O[C@H](CO)[C@@H](O)[C@H](O)[C@H]2O)[C@H](O)[C@@H](O)[C@@H]1O` [Trehalose D, trehalose], in data set [1] (listed as D), the “Proportion of particles of 75 μm or more” value came to 1%. In data set [2] (listed as D), this compound had an Average particle size of 12 μm. Besides, in data set [3] (listed as D), the Apparent specific volume was 4.5 cm^3/g. The Angle of repose in [4] (listed as D) and in data set [4] (listed as trehalose D) was 65 ° each time. In data set [6] (listed as D), this compound yielded a Whiteness of 96%. Besides, the “Tablet hardness at a compression pressure of 1000 kg/cm^2” value in [7] (binding solution 100 g) is listed as 4.5 kgf; in data set [7] (binding solution 120 g) it was 4.1 kgf; in [7] (binding solution 160 g), 3.0 kgf. The “Average particle size of granules” value is recorded as 80 μm in data set [8] (phenacetin 50/excipient 30/corn starch 10/microcrystalline cellulose 10, binding solution 100 g); 121 μm in data set [8] (phenacetin granules, binding solution 120 g); 205 μm in [8] (phenacetin granules, binding solution 160 g).
`OC[C@H]1O[C@H](O[C@H]2O[C@H](CO)[C@@H](O)[C@H](O)[C@H]2O)[C@H](O)[C@@H](O)[C@@H]1O` [Trehalose E, trehalose]: the “Proportion of particles of 75 μm or more” value in data set [1] (listed as E) was found to be 3%. In addition, the Average particle size in data set [2] (listed as E) was 25 μm. For the same compound, the Apparent specific volume in data set [3] (listed as E) turned out to be 3.7 cm^3/g. Further, the results for the Angle of repose in data set [4] (listed as E) and in data set [4] (listed as trehalose E) were 55 ° and “more than 50 °”, respectively. In data set [6] (listed as E), this compound gave a Whiteness of 96%.
As for `OC[C@H]1O[C@H](O[C@H]2O[C@H](CO)[C@@H](O)[C@H](O)[C@H]2O)[C@H](O)[C@@H](O)[C@@H]1O` [Trehalose F, trehalose], the “Proportion of particles of 75 μm or more” value in data set [1] (listed as F) came out at 28%. The compound also registered an Average particle size in [2] (listed as F) of 49 μm. For the same compound, the Apparent specific volume in data set [3] (listed as F) is listed as 2.3 cm^3/g. This compound displayed an Angle of repose in [4] (listed as F) of 45 °. In [6] (listed as F), the Whiteness worked out at 94%. In data set [9], this compound gave a Water content of 0.5%. In addition, in [7] (tablets compressed at 500 kg/cm^2, 0 day (immediately after compression), listed as F), the Tablet hardness stood at 4.5 kgf.
Turning to `OC[C@H]1O[C@H](O[C@H]2O[C@H](CO)[C@@H](O)[C@H](O)[C@H]2O)[C@H](O)[C@@H](O)[C@@H]1O` [Trehalose G, trehalose], the “Proportion of particles of 75 μm or more” value in [1] (listed as G) was determined as 13%. Besides, the Average particle size in [2] (listed as G) was found to be 31 μm. In addition, the Apparent specific volume in [3] (listed as G) is listed as 3.1 cm^3/g. The same compound returned an Angle of repose in data set [4] (listed as G) of 49 °. In addition, the Whiteness is given as 94% in data set [6] (listed as G); 94% in data set [5] (same manner as in Example 2 (drug not stated), 0 day); 87% in data set [5] (same manner as in Example 2 (drug not stated), 40° C. and 75% RH, 1 month, listed as G); “less than 90%” in data set [5] (same manner as in Example 2 (drug not stated), 40° C. and 75% RH, 1 month, listed as trehalose G).
Take `OC[C@H]1O[C@H](O[C@H]2O[C@H](CO)[C@@H](O)[C@H](O)[C@H]2O)[C@H](O)[C@@H](O)[C@@H]1O` [Trehalose H, trehalose]: the “Proportion of particles of 75 μm or more” value in [1] came out at 91%. Moreover, in data set [2], the Average particle size stood at 180 μm. Further, the Apparent specific volume in [3] came out at 1.5 cm^3/g. In data set [4], the Angle of repose came out at 37 °. The same compound had a Whiteness in data set [6] of 98%.
For `OC[C@H]1O[C@H](O[C@H]2O[C@H](CO)[C@@H](O)[C@H](O)[C@H]2O)[C@H](O)[C@@H](O)[C@@H]1O` [Trehalose I, trehalose], in that order: 95%, 280 μm, 1.4 cm^3/g, 30 ° and 96%.
Turning to `OC[C@H]1O[C@H](O[C@H]2O[C@H](CO)[C@@H](O)[C@H](O)[C@H]2O)[C@H](O)[C@@H](O)[C@@H]1O` [Trehalose L, trehalose], in data set [1] (listed as L), the “Proportion of particles of 75 μm or more” value was 25%. This compound also displayed an Average particle size in data set [2] (listed as L) of 45 μm. Besides, the Apparent specific volume in data set [3] (listed as L) stood at 2.5 mL/g. Further, the Whiteness in [6] (listed as L) is 95%.
In the case of `OC[C@H]1O[C@H](O[C@H]2O[C@H](CO)[C@@H](O)[C@H](O)[C@H]2O)[C@H](O)[C@@H](O)[C@@H]1O` [Trehalose M, trehalose], in data set [1] (listed as M), the “Proportion of particles of 75 μm or more” value is given as 1%. The compound further returned an Average particle size in data set [2] (listed as M) of 8 μm. For the same compound, the Apparent specific volume in [3] (listed as M) came out at 3.8 mL/g. Further, in data set [6] (listed as M), the Whiteness is on record as 97%.
`OC[C@H]1O[C@H](O[C@H]2O[C@H](CO)[C@@H](O)[C@H](O)[C@H]2O)[C@H](O)[C@@H](O)[C@@H]1O` [Trehalose N, trehalose]: in [1] (listed as N), the “Proportion of particles of 75 μm or more” value was determined as 45%. In addition, the Average particle size in [2] (listed as N) is on record as 70 μm. Also, in data set [3] (listed as N), the Apparent specific volume stood at 2.2 mL/g. Also, the Whiteness in data set [6] (listed as N) was determined as 88%.
